# Values of other authors in patent publication US12661328B2, “Methods of treating anti-NMDAR-associated neuropsychiatric disorders” (Vanderbilt University, priority 2018, dated 2026).
# What was measured:
# [1] = tested on: voltage-dependent calcium, sodium, or potassium channels
# [2] = tested on: γ-aminobutyric acid (GABA), benzodiazepine, dopamine, adrenergic, histamine, or glycine receptors
# [3] = tested on: extrasynaptic NMDA receptors; conditions: Xia et al., 2010
structure (smiles),measurement,setting,value
"CC12CC3CC(C)(C1)CC(N)(C3)C2 [Memantine, 1-amino-3,5-dimethyladamantane]",affinity for NMDA receptors,NMDA receptors,low to moderate-affinity
same,"affinity for voltage-dependent calcium, sodium, or potassium channels",[1],no affinity
same,"affinity for GABA, benzodiazepine, dopamine, adrenergic, histamine, or glycine receptors",[2],no affinity
same,concentration range of relatively specific inhibition of extrasynaptic NMDA receptors,[3],low micromolar range
